Several values for one entry are separate records, joined by “and”; a condition that tells them apart may be missing. Identical values can stand only once.
System: deep retinal vascular network formation in neonatal Balb/C mice
Assay: Neonatal mouse retinal angiogenesis model
Assay type: in vivo
Excerpt: Description of the Model. Immediately after birth (postnatal day zero; “P0”), retinal vasculature is virtually absent in the mouse. By four weeks after birth (P28) the retina has attained an adult pattern of retinal vessels coincident with the onset of vision. Physiological neovascularization of the retina occurs during this period via a stereotypical, biphasic developmental pattern of angiogenesis. During the primary phase of retinal vascular development, spoke-like peripapillary vessels grow radially from the central retinal artery and vein, becoming progressively interconnected by a capillary plexus that forms between them. This “inner retinal plexus” grows in area, volume and complexity, centrifugally, as a monolayer within the nerve fiber layer during the first seven to ten days following birth.
The second phase of retinal vessel formation begins between postnatal days 7 (P7) and 10 (P10) when collateral branches sprout from capillaries of the superficial plexus and penetrate into the retina where their tips branch and anastamose laterally to form a planar “deep vascular plexus”. While the deep vascular plexus is in place by P14, it undergoes extensive remodeling from P14 to P21. It is of interest to note that the formation of these vascular networks in the neonatal mouse are strikingly similar to the events occurring in the third trimester human fetus.
Advantages and Quantification of the Model. The reproducibility of the murine retinal development process and its easy accessibility in neonatal animals provide an opportunity to assess the efficacy of antiangiogenic compounds in a physiologically relevant model of angiogenesis. Additional advantages of the neonatal mouse model are the ability to qualitatively and quantitatively evaluate the angiostatic effect of putative antagonists of angiogenesis. Angiostatic activity was evaluated based upon the degree of angiogenesis in the deep, outer retinal vascular layer (secondary layer) that develops between P8 and P12. The appearance of the inner blood vessel network (primary layer) was evaluated for normal development and signs of toxicity.
Preparation of Compositions. Peptidomimetic integrin signaling inhibitor Compound (1) is solubilized in PBS at a concentration of about 20 mg/ml in PBS (1× concentration). T2-TrpRS is solubilized in PBS at a concentration of about 0.5 mg/ml (1× concentration). VEGF aptamer (pegaptanib sodium; Compound (2)) is solubilized in PBS at a concentration of about 2 mg/ml (1× concentration) to achieve an injection of approximately 1 μg/eye at 1× concentration. For all combination assays the compounds were prepared at 2 or 3 times the 1× concentration of each material and then combined to produce a final solution containing each individual compound at the same concentration as was used alone (e.g., 1×, 0.5×, 0.25× or 0.1×, as the case may be). For all assays, a single injection of 0.5 μl of PBS solutions of the drugs was administered intravitreally regardless of the number of compounds being injected. As used herein, the term “0.1×” refers to one tenth of the 1× concentration of a given material, “0.25×” refers to one quarter of the 1× concentration of a given material, “0.5×” refers to one half of the 1× concentration of a given material, and so forth for similar designations.
An in vivo angiogenesis assay in the neonatal mouse (Balb/C, The Jackson Laboratory, Bar Harbor, Me.) was used to evaluate the angiostatic activity of integrin signaling inhibitor Compound (1), T2-TrpRS, and VEGF aptamer Compound (2). Intravitreous injection and retina isolation was performed with a dissecting microscope (SMZ 645, Nikon, Japan). […] The samples (0.5 μl) were injected with a Hamilton syringe fitted with a 32-gauge needle (Hamilton Company, Reno, Nev.). The injection was made between the equator and the corneal limbus. During injection, the location of the needle tip was monitored by direct visualization to determine that it was in the vitreal cavity. […]

[1] = Ex 1, 0.1× (1×=20 mg/ml), intravitreal P8, read P12
[2] = Ex 5, 0.5× (1×=20 mg/ml), intravitreal P4, read P12
[3] = Ex 6, 0.5× (1×=20 mg/ml), intravitreal P4, read P12
[4] = Ex 7, 0.5× (1×=20 mg/ml), intravitreal P4, read P12
[5] = Ex 9, 1× of each (Comp. (1) 20, Comp. (2) 2, T2-TrpRS 0.5 mg/ml), intravitreal P4, read P12
[6] = Table 12, composite data from the Examples, 1×-2×
[7] = Table 13A, 5-10 μg per eye, intravitreal P7, read P12
[8] = Table 13C low dosing, 0.1x (integrin ant. 1.0 μg, VEGF apt. 0.20 μg, T2-TrpRS 0.025 μg)

CC(C)(C)COC(=O)N[C@@H](Cc1ccc2c(c1)NC(=O)[C@@H](CCC(=O)Nc1ncc[nH]1)O2)C(=O)[O-].[Na+] [Compound (1)]
inhibition of neovascularization (0.1× concentrations (1 μg/eye integrin antagonist, 0.2 μg/eye VEGF aptamer, 0.025 μg/eye T2-TrpRS)): negligible | % of eyes with 0-10% inhibition of deep vascular layer [1]: 40% | % of eyes with 10-25% inhibition of deep vascular layer [1]: 0.5% | % of eyes with 25-50% inhibition of deep vascular layer [1]: 20% | % of eyes with 50-75% inhibition of deep vascular layer [1]: 20% | % of eyes with 75-100% inhibition of deep vascular layer [1]: 20% | % of eyes with 0-10% inhibition of deep vascular layer [2]: 50% | % of eyes with 10-25% inhibition of deep vascular layer [2]: 33.3% | % of eyes with 25-50% inhibition of deep vascular layer [2]: 16.7% | % of eyes with 50-75% inhibition of deep vascular layer [2]: 0% | % of eyes with 75-100% inhibition of deep vascular layer [2]: 0% | % of eyes with 100% inhibition of deep vascular layer [2]: 0% | % of eyes with >95% inhibition of deep vascular layer [2]: 0% | % of eyes with 0-10% inhibition of deep vascular layer [3]: 50% | % of eyes with 10-25% inhibition of deep vascular layer [3]: 12.5% | % of eyes with 25-50% inhibition of deep vascular layer [3]: 12.5% | % of eyes with 50-75% inhibition of deep vascular layer [3]: 12.5% | % of eyes with 75-100% inhibition of deep vascular layer [3]: 12.5% | % of eyes with 100% inhibition of deep vascular layer [3]: 0% | % of eyes with >95% inhibition of deep vascular layer [3]: 0% | % of eyes with 0-10% inhibition of deep vascular layer [4]: 12.5% | % of eyes with 10-25% inhibition of deep vascular layer [4]: 25% | % of eyes with 25-50% inhibition of deep vascular layer [4]: 12.5% | % of eyes with 50-75% inhibition of deep vascular layer [4]: 12.5% | % of eyes with 75-100% inhibition of deep vascular layer [4]: 37.5% | % of eyes with 100% inhibition of deep vascular layer [4]: 0% | % of eyes with >95% inhibition of deep vascular layer [4]: 0% | % of eyes with 0-10% inhibition of deep vascular layer [5]: 25% | % of eyes with 10-25% inhibition of deep vascular layer [5]: 12.5% | % of eyes with 25-50% inhibition of deep vascular layer [5]: 12.5% | % of eyes with 50-75% inhibition of deep vascular layer [5]: 37.5% | % of eyes with 75-100% inhibition of deep vascular layer [5]: 12.5% | % of eyes with 100% inhibition of deep vascular layer [5]: 0% | % of eyes with >95% inhibition of deep vascular layer [5]: 0% | % of mice with 0-10% inhibition of deep vascular layer [6]: 33.3% | % of mice with 10-25% inhibition of deep vascular layer [6]: 20% | % of mice with 25-50% inhibition of deep vascular layer [6]: 13.3% | % of mice with 50-75% inhibition of deep vascular layer [6]: 16.7% | % of mice with 75-100% inhibition of deep vascular layer [6]: 16.7% | % of mice with 100% inhibition of deep vascular layer [6]: 0% | % of mice with >95% inhibition of deep vascular layer [6]: 0% | Percentage of retinas with 0-10% neovascular inhibition [7]: 33.3% | Percentage of retinas with 10-25% neovascular inhibition [7]: 20.0% | Percentage of retinas with 25-50% neovascular inhibition [7]: 13.3% | Percentage of retinas with 50-75% neovascular inhibition [7]: 16.7% | Percentage of retinas with 100% neovascular inhibition [7]: 0.0% | Percentage of retinas with >75% neovascular inhibition [7]: 16.7% | Percentage of retinas with >90% neovascular inhibition [7]: 0.0% | Percentage of retinas with 0-10% neovascular inhibition [8]: 90% | Percentage of retinas with 10-25% neovascular inhibition [8]: 10% | Percentage of retinas with 25-50% neovascular inhibition [8]: 0% | Percentage of retinas with 50-75% neovascular inhibition [8]: 0% | Percentage of retinas with 100% neovascular inhibition [8]: 0% | Percentage of retinas with >75% neovascular inhibition [8]: 0% | Percentage of retinas with >90% neovascular inhibition [8]: 0% | optimal effective dose (dosing experiments, bell-shaped efficacy curve, listed as integrin antagonist): 5-10 μg per eye and 10-20 nmoles per eye | retinas that exhibited over 75% inhibition (monotherapy at optimal dose): 17% | retinas unaffected by injection (monotherapy at the maximum individual dose): around 35%

From patent US7528106B2, “Compositions and methods for treatment of neovascular diseases” (The Scripps Research Institute, priority 2004, dated 2009)
